According to patent publication US11753445B2, “Therapeutic peptides” (COHBAR, INC., priority 2016, dated 2023):
Peptide text beside a SMILES is read from it.

Key:
3T3-L1 Adipocytes = assay: Free fatty acid levels in cultured mouse 3T3-L1 adipocytes, isoproterenol stimulated (Example 2); format: cell-based; settings: test peptides 25 μM; isoproterenol 1 nM
In short: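 Release of free fatty acids, read at 540 nm, was stimulated with 1 nM isoproterenol for 3 h in mouse 3T3-L1 adipocytes (12–17 days of differentiation). Cells were pre-exposed to 25 μM peptide for 18–20 h plus 1 h, with peptide kept in during stimulation. Values are background-subtracted and normalised to isoproterenol alone.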

[1] = Stability in mouse plasma, peptides 10 uM (Example 15); format: in vitro ADME; settings: mouse plasma 37° C., peptide 10 uM; for remaining at 0.25 h, 10 uM / remaining at 0.5 h, 10 uM / remaining at 1 h, 10 uM / remaining at 2 h, 10 uM / remaining at 3 h, 10 uM: pooled mouse plasma; for remaining at 0.25 h, 10 uM: 15 min, read-out: % Remaining at Each Time Point: 15 min; for remaining at 0.5 h, 10 uM: 30 min, read-out: % Remaining at Each Time Point: 30 min; for remaining at 1 h, 10 uM: 60 min, read-out: % Remaining at Each Time Point: 60 min; for remaining at 2 h, 10 uM: 120 min, read-out: % Remaining at Each Time Point: 120 min; for remaining at 3 h, 10 uM: 180 min, read-out: % Remaining at Each Time Point: 180 min
Experimental: (§1) Peptides (10 uM) were incubated in pooled mouse plasma at 37° C. and samples were removed and immediately analyzed for the concentration of intact peptide by LC/MS/MS over the course of 3 hours. The percent of peptide remaining in plasma at each time point was calculated relative to the initial peak area (Table 13).

[2] = Stability in mouse plasma, peptides 100 uM (Example 14); format: in vitro ADME; settings: mouse plasma 37° C., peptide 100 uM
Experimental: as §1, with “(100” for “(10”, “12).” for “13).”

% Remaining at Each Time Point: 0 min [1]	remaining at 0.25 h, 10 uM [1]	remaining at 0.5 h, 10 uM [1]	remaining at 1 h, 10 uM [1]	remaining at 2 h, 10 uM [1]	remaining at 3 h, 10 uM [1]	% Remaining at Each Time Point: 0 min ([2]; 0 min)	remaining at 0.25 h, 100 uM ([2]; pooled mouse plasma, 15 min, read-out: % Remaining at Each Time Point: 15 min)	remaining at 0.5 h, 100 uM ([2]; pooled mouse plasma, 30 min, read-out: % Remaining at Each Time Point: 30 min)	remaining at 1 h, 100 uM ([2]; pooled mouse plasma, 60 min, read-out: % Remaining at Each Time Point: 60 min)	remaining at 2 h, 100 uM ([2]; pooled mouse plasma, 120 min, read-out: % Remaining at Each Time Point: 120 min)	remaining at 3 h, 100 uM ([2]; pooled mouse plasma, 180 min, read-out: % Remaining at Each Time Point: 180 min)	Compound	Free Fatty Acid Levels in 3T3-L1 Adipocytes Expressed as a Percent of Isoproterenol Control: Percent of Control Value (3T3-L1 Adipocytes)
100%	46.7%	40.5%	28.3%	15.8%	11.1%	–	–	–	–	–	–	H-RWQEMNYIFEPR-OH [compound 249]	81.3%
100%	79.4%	68.8%	53.1%	35.7%	35.9%	–	–	–	–	–	–	H-RWQEENYIAYPR-OH [compound 260]	75.9%
100%	90%	81.9%	77.4%	69.2%	67%	–	–	–	–	–	–	CC[C@H](C)[C@H](NC(=O)[C@H](Cc1ccc(O)cc1)NC(=O)[C@H](CC(N)=O)NC(=O)[C@H](CCSC)NC(=O)[C@H](CCC(=O)O)NC(=O)[C@H](CCC(N)=O)NC(=O)[C@H](Cc1c[nH]c2ccccc12)NC(=O)[C@H](CCCNC(=N)N)NC(=O)[C@@H](C)N)C(=O)N[C@@H](Cc1ccccc1)C(=O)N[C@@H](Cc1ccc(O)cc1)C(=O)N1CCC[C@H]1C(=O)N[C@@H](CCCNC(=N)N)C(=O)O [compound 288] (HELM PEPTIDE1{[dA].R.W.Q.E.M.N.Y.I.F.Y.P.R}$$$$V2.0)	93.0%
100%	70%	45.8%	17.2%	2.64%	0.43%	–	–	–	–	–	–	H-WQEMGYIFYPRKL-OH [compound 269]	59.2%
–	–	–	–	–	–	100%	17.5%	19.3%	21.4%	10.9%	6.89%	H-ARWQEMGYIFYPRKLR-OH [compound 6]	58.6%
100%	76.7%	68.2%	54.5%	59.4%	56.1%	–	–	–	–	–	–	H-RWQEEQYIFEPR-OH [compound 264]	63.2%
100%	34.9%	25.7%	1.92%	0.41%	0.29%	–	–	–	–	–	–	H-MRWQEMNYIFYP-OH [compound 282]	71.8%
100%	88.4%	74.7%	57.1%	36.4%	25.9%	–	–	–	–	–	–	Ac-MRWQEMNYIFYPR-OH [compound 286]	94.8%
100%	76.1%	49.5%	20.3%	0.48%	0%	–	–	–	–	–	–	H-RWQEMGYIFYPRKL-OH [compound 268]	41.9%
100%	63.2%	54.1%	35.9%	20%	11.7%	–	–	–	–	–	–	H-RWQEMNYIAYPR-OH [compound 250]	83.0%
100%	70.7%	72.3%	38.3%	74.8%	51.1%	–	–	–	–	–	–	H-RWQEEQYIAEPR-OH [compound 266]	72.7%
100%	64%	45.2%	26.8%	8.76%	2.93%	–	–	–	–	–	–	H-MRWQEMNYIFYP-NH2 [compound 287]	78.1%
100%	38.5%	16.7%	9.17%	1.76%	0.87%	–	–	–	–	–	–	H-WQEMNYIFYP-OH [compound 285]	96.0%
100%	13.8%	3.22%	0.59%	0.36%	0.21%	–	–	–	–	–	–	H-QEMGYIFYPRKL-OH [compound 270]	66.9%
100%	83.3%	74.5%	54.9%	56%	51.7%	–	–	–	–	–	–	H-RWQEEQYIAYPR-OH [compound 265]	66.7%
100%	82.9%	74.6%	78.4%	77.2%	75.6%	–	–	–	–	–	–	CCCCCCCCCCCCCCCC(=O)N[C@@H](CCSC)C(=O)N[C@@H](CCCNC(=N)N)C(=O)N[C@@H](Cc1c[nH]c2ccccc12)C(=O)N[C@@H](CCC(N)=O)C(=O)N[C@@H](CCC(=O)O)C(=O)N[C@@H](CCSC)C(=O)N[C@@H](CC(N)=O)C(=O)N[C@@H](Cc1ccc(O)cc1)C(=O)N[C@H](C(=O)N[C@@H](Cc1ccccc1)C(=O)N[C@@H](Cc1ccc(O)cc1)C(=O)N1CCC[C@H]1C(=O)N[C@@H](CCCNC(=N)N)C(=O)O)[C@@H](C)CC [compound 289] (HELM PEPTIDE1{[CCCCCCCCCCCCCCCC(=O)[*:2]].M.R.W.Q.E.M.N.Y.I.F.Y.P.R}$$$$V2.0)	94.5%
–	–	–	–	–	–	–	–	–	–	–	–	CC[C@H](C)[C@H](NC(=O)[C@H](Cc1ccc(O)cc1)NC(=O)CNC(=O)[C@H](CCSC)NC(=O)[C@H](CCC(=O)O)NC(=O)[C@H](CCC(N)=O)NC(=O)[C@H](Cc1c[nH]c2ccccc12)NC(=O)C(C)(C)NC(=O)[C@H](CCSC)NC(C)=O)C(=O)N[C@@H](Cc1ccccc1)C(=O)N[C@@H](Cc1ccc(O)cc1)C(=O)N1CCC[C@H]1C(=O)N[C@@H](CCCNC(=N)N)C(=O)N[C@@H](CCCCN)C(=O)N[C@@H](CC(C)C)C(=O)N[C@@H](CCCNC(=N)N)C(=O)O [compound 120] (HELM PEPTIDE1{[ac].M.[Aib].W.Q.E.M.G.Y.I.F.Y.P.R.K.L.R}$$$$V2.0)	86.0%
100%	75.3%	60.1%	41.1%	22.1%	13.7%	–	–	–	–	–	–	H-WQEMNYIFYPR-OH [compound 284]	97.1%
–	–	–	–	–	–	–	–	–	–	–	–	Ac-MRWQEEGYIFYPRKLR-NH2 [compound 187]	98.9%
–	–	–	–	–	–	–	–	–	–	–	–	CC[C@H](C)[C@H](NC(=O)[C@H](Cc1ccc(O)cc1)NC(=O)[C@@H](C)NC(=O)[C@H](CCSC)NC(=O)[C@H](CCC(=O)O)NC(=O)[C@H](CCC(N)=O)NC(=O)[C@H](Cc1c[nH]c2ccccc12)NC(=O)[C@H](CCCNC(=N)N)NC(=O)[C@H](CCSC)NC(C)=O)C(=O)N[C@@H](Cc1ccccc1)C(=O)N[C@@H](Cc1ccc(O)cc1)C(=O)N1CCC[C@H]1C(=O)N[C@@H](CCCNC(=N)N)C(=O)N[C@@H](CCCCN)C(=O)N[C@@H](CC(C)C)C(=O)N[C@@H](CCCNC(=N)N)C(N)=O [compound 88] (HELM PEPTIDE1{[ac].M.R.W.Q.E.M.[dA].Y.I.F.Y.P.R.K.L.R.[am]}$$$$V2.0)	75.1%
–	–	–	–	–	–	–	–	–	–	–	–	Ac-LKWQEMGYIFYPRKR-NH2 [compound 117]	97.7%
